According to patent US20040077607A1 (priority 2002, published 2004):
“And” between values parts separate entries of the source, which are not always exact repeats. Equal values may be shown once. Read-outs that look alike come from different tables or passages of the source.

Experiments:
[1] = simulated intestinal fluid, 100 μM, 37° C.
[2] = 100 μM, mouse liver homogenate
[3] = in vivo; cited from earlier work
[4] = 37° C.
[5] = system: Josiach strain of Lassa Virus; design: species or system CBA mice; conditions: mouse, in vivo
[6] = female, Balb/c, mouse, in vivo, iv
[7] = dog, in vivo; cited from earlier work
[8] = mouse, in vivo; cited from earlier work
[9] = for mean percent hydrolysis in plasma: 250 μM
[10] = rat, in vivo; cited from earlier work
in vivo [11] = conditions: female, Balb/c, mouse, po, 100 mg/kg, Balb/c mice, plasma; for AUC / Cmax / Tmax: after oral 100 mg/kg d4T-5′-[p-bromophenyl methoxyalaninyl phosphate]; for half-life: t1/2, after oral 100 mg/kg d4T-5′-[p-bromophenyl methoxyalaninyl phosphate]
in vivo [12] = conditions: female, Balb/c, mouse, iv, 75 mg/kg, Balb/c mice, plasma; for AUC / clearance / Cmax / Vd: after i.v. 75 mg/kg Ala-d4T-MP; for clearance: CL; for Vd: Vss; for half-life: t1/2, after i.v. 75 mg/kg Ala-d4T-MP
[13] = not given; remark: listed apart in the source
in vivo [14] = conditions: female, Balb/c, mouse, iv, 100 mg/kg
[15] = after oral 100 mg/kg d4T-5′-[p-bromophenyl methoxyalaninyl phosphate], Balb/c mice, plasma; mean ± S.E.M. (in parentheses)
[16] = after i.v. 40 mg/kg d4T, Balb/c mice, plasma; mean ± S.E.M. (in parentheses)
[17] = estimate from composite pooled data
[18] = model fit after i.v. 75 mg/kg Ala-d4T-MP, C.V. of modeling in parentheses, 75 mg/kg

## COC(=O)C(C)NP(=O)(OC[C@@H]1C=C[C@H](n2cc(C)c(=O)[nH]c2=O)O1)Oc1ccc(Br)cc1 (stereo partly drawn) [d4T-5′-[p-bromophenylmethoxyalaninyl phosphate]]
[1]; within 2 hours
  decomposed in intestinal fluid: approximately 94%
[2]
  time to decomposition after incubation with liver homogenate: ≤ 30 min
[3]
  tolerability: very well tolerated
[4]; 250 μM
  stability in whole blood: very unstable
  time to complete decomposition in whole blood: ≤ 30 min
[4]; 250 μM, 5 minutes
  decomposed in whole blood: 68%
[4]; 250 μM, 10 minutes
  decomposed in whole blood: 87%
[4]; 250 μM, 15 minutes
  decomposed in whole blood: 92%
[5]
  median survival: > 21 days
  mice remaining healthy beyond the 21-day observation period: 9 mice
  mice surviving beyond the 21 day observation period: 6 mice
  probability of survival at 21 days: 75% and 90%
[6]
  fraction converted to Ala-d4T-MP: 23%
  fraction converted to d4T: 24%
[7]
  tolerability: very well tolerated
[8]
  acute or subacute toxicity: very well tolerated without any detectable acute or subacute toxicity
  toxicity on daily administration: not associated with any detectable toxicity
[9]; EDTA (1 mM; arylesterase), 5 min
  mean percent hydrolysis in plasma: 99%
[9]; EDTA (1 mM; arylesterase), 10 min
  mean percent hydrolysis in plasma: 100%
[9]; EDTA (1 mM; arylesterase), 15 min
  mean percent hydrolysis in plasma: 100%
[9]; EDTA (1 mM; arylesterase), 30 min
  mean percent hydrolysis in plasma: 100%
[9]; EDTA (1 mM; arylesterase), 60 min
  mean percent hydrolysis in plasma: 100%
[9]; EDTA (1 mM; arylesterase), 120 min
  mean percent hydrolysis in plasma: 100%
[9]; EDTA, 37° C.
  decomposition in plasma, effect of EDTA: not affected
[9]; No inhibitor, 5 min
  mean percent hydrolysis in plasma: 95%
[9]; No inhibitor, 10 min
  mean percent hydrolysis in plasma: 98%
[9]; No inhibitor, 15 min
  mean percent hydrolysis in plasma: 99%
[9]; No inhibitor, 30 min
  mean percent hydrolysis in plasma: 100%
[9]; No inhibitor, 60 min
  mean percent hydrolysis in plasma: 100%
[9]; No inhibitor, 120 min
  mean percent hydrolysis in plasma: 100%
[9]; Physostigmine (0.1 mM; cholinesterase), 5 min
  mean percent hydrolysis in plasma: 43%
[9]; Physostigmine (0.1 mM; cholinesterase), 10 min
  mean percent hydrolysis in plasma: 65%
[9]; Physostigmine (0.1 mM; cholinesterase), 15 min
  mean percent hydrolysis in plasma: 76%
[9]; Physostigmine (0.1 mM; cholinesterase), 30 min
  mean percent hydrolysis in plasma: 89%
[9]; Physostigmine (0.1 mM; cholinesterase), 60 min
  mean percent hydrolysis in plasma: 100%
[9]; Physostigmine (0.1 mM; cholinesterase), 120 min
  mean percent hydrolysis in plasma: 100%
[9]; physostigmine 0.1 mM, 37° C.
  decomposition in plasma, effect of physostigmine: partially inhibited
250 μM
  stability in plasma: very unstable
  time to complete decomposition in plasma: ≤ 30 min
250 μM, after 5 minutes
  decomposed following incubation with plasma: over 95%
[10]
  acute or subacute toxicity: very well tolerated without any detectable acute or subacute toxicity
  toxicity on daily administration: not associated with any detectable toxicity

## Cc1cn([C@H]2C=C[C@@H](COP(=O)(O)N[C@@H](C)C(=O)O)O2)c(=O)[nH]c1=O [Ala-d4T-MP, alaninyl-d4T-monophosphate]
[1]
  stability in intestinal fluid: stable
In vivo [11]; [17]
  AUC: 22.5 µM·h
  Cmax: 12.7 µM
  half-life: 66.4 min
  Tmax: 10.3 min
In vivo [11]; mean ± S.E.M. (in parentheses)
  AUC: 22.6 µM·h
  Cmax: 15.6 µM
  half-life: 56.1 min
  Tmax: 9.3 min
[4]; 100 μM, for 1 day
  stability in whole blood: stable
In vivo [12]; [17]
  AUC: 194 µM·h
  clearance: 15.8 mL/min/kg
  Cmax: 1210 µM
  Vd: 0.276 L/kg
  half-life: 28.5 min
In vivo [12]; mean ± S.E.M. (in parentheses)
  AUC: 196 µM·h
  clearance: 15.7 mL/min/kg
  Cmax: 1660 µM
  Vd: 0.413 L/kg
  half-life: 91.5 min
[13]; after i.v. 75 mg/kg Ala-d4T-MP
  CLm1 as share of the total systemic clearance: 99%
[13]; after intravenous administration of Ala-d4T-MP
  fraction converted to d4T: 15%
[13]; [18]
  CLml (metabolic clearance of Ala-d4T-MP / formation clearance of d4T): 15.6 ml/min/kg and 15.6 (16.6%) ml/min/kg
  CLpd (distribution of Ala-d4T-MP to the extravascular compartment): 4.7 ml/min/kg and 4.7 (44.7%) ml/min/kg
In vivo [14]; AUC
  AUC: 47.6 µM·h
In vivo [14]; Cmax
  Cmax: 67.4 µM
In vivo [14]; t1/2
  half-life: 129 min
In vivo [14]; tmax
  Tmax: 5.9 min
100 μM, for 1 day
  stability in plasma: stable

## Cc1cn([C@H]2C=C[C@@H](CO)O2)c(=O)[nH]c1=O [d4T, 2′,3′-didehydro-2′,3′-dideoxythymidine]
[15]
  AUC: (5928.4 ± 294.6) μM · min
  Cmax: 29.5 µM
  Tmax: (45.2 ± 5.2) min
  t1/2: (102.6 ± 3.8) min
[13]; after i.v. 75 mg/kg Ala-d4T-MP, Balb/c mice, plasma, mean ± S.E.M. (in parentheses)
  Tmax: (5.0 ± 1.2) min
[13]; [18]
  CLme (elimination of d4T derived from Ala-d4T-MP): 88.4 ml/min/kg and 88.4 (13.0%) ml/min/kg
[16]
  AUC: (12173.6 ± 559.5) μM · min
